Data taken from article PMC10343475, “Systematic Modification of the Substitution Pattern of the 7-Hydroxy-5-oxopyrazolo[4,3-b]pyridine-6-carboxamide Scaffold Enabled the Discovery of New Ligands with High Affinity and Selectivity for the Cannabinoid Type 2 Receptor” (Molecules, 2023).
Where “and” joins values, the source holds several entries; their conditions need not be identical. Identical values can stand only once. Like-named read-outs stand apart in the source and are kept apart here.

How the values were obtained:
[1] = Dissolution of 63-salts in 0.9% NaCl solution (LC-MS/MS); assay type: physicochemical
From the text: [63^−] = 9.81 × 10^−7 mol^2/L^2. […] However, starting from the cesium salt, the concentration of drug dissolved in the physiological solution maintained high values for at least one hour (around 50 × 10^−6 mol/L, with a peak higher than 100 × 10^−6 mol/L) and, for a further two hours, these values were higher than those obtained with the sodium salt. From this, it can be deduced that the 63-cesium salt would be very suitable for the extemporaneous preparation of injectable solutions in the presence of high concentrations of sodium ions.
An excess amount (~4 to 5 mg) of each salt of compound 63 was added to 5 mL of a 0.9% NaCl solution, kept under constant agitation, and thermostated at room temperature (21 ± 2 °C). At fixed time points, an aliquot was withdrawn from the solution, and centrifuged (3000 g, 10 min, RT) to separate undissolved compound and the supernatant, after dilution with MeOH, was analyzed by LC-MS/MS. An Accela UHPLC system coupled with a TSQ Quantum Access Max triple quad mass spectrometer (Thermo Fisher, Waltham, MA, USA), was employed to quantify dissolved 63 over time. UHPLC separation occurred by gradient elution, employing a Synergy Fusion C18 80Å RP-column (2.0 × 100 mm, 4 µm; Phenomenex, Bologna, Italy). Mobile phases A and B were acetonitrile and water, both with 0.1% v/v formic acid added. The following elution conditions were employed: linear gradient from 60 to 95%A in 5 min; 95% A between 5 and 8 min, returning to 60% A in 0.5 min with 2.5 min reconditioning time. Total run time: 11 min. The flow rate was 0.35 mL/min and injection volume was 10 µL. Heated electrospray (H-ESI) ion source voltage was set at 4.0 KV; capillary temperature at 270 °C. Nitrogen served both as sheath and auxiliary gas at 35 psi and 15 psi, respectively. Argon at a pressure of 1.5 mtorr was employed as collision gas. H-ESI ion source operated in positive ion mode (ESI+) and acquisition occurred in multiple reaction monitoring (MRM). Tube lens voltages (TL) and collision energies (CE) for each parent-product ion transition were optimized by flow injection analysis of 5 µM solutions of each standard in MeOH. Compound 63: m/z = 399.2 [M+H]^+ → m/z = 135.1, 107.1, 93.1 (TL = 98 V; CE = 20, 33, 37 eV, respectively). Its 1-hydroxy derivative, compound 4-(1-butyl)-4,5-dihydro-7-hydroxy-N-(1-hydroxyadamantan-3-yl)-2-methyl-5-oxo-2H-pyrazolo[4,3-b]pyridine-6-carboxamide, was employed as Internal Standard: m/z = 415.2 [M+H]^+ → m/z = 266.1, 248.1 (TL = 99 V; CE = 14, 31 eV). Calibration curves were prepared in MeOH in the 1000–10 nM concentration range starting and coefficients of determination of regression models were >0.99. Xcalibur software version 2.2 (Thermo Fisher Scientific, Inc., Waltham, MA, USA) was employed for both data acquisition and processing. […]

[2] = molecular target: T1, human CB2 receptor (Homo sapiens, UniProt P34972); details: Figure 1, earlier ligands of the group; cited from earlier work
T1 sequence (P34972 whole entry): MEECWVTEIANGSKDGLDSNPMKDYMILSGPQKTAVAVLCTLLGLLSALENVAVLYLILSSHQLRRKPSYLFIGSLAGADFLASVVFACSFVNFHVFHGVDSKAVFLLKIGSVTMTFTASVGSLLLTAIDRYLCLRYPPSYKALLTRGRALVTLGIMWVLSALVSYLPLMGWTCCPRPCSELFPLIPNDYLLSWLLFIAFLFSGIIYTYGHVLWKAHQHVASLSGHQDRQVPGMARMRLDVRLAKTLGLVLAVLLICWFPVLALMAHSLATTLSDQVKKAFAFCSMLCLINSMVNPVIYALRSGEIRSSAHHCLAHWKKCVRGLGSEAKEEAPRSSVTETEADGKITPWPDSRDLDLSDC

[3] = molecular target: T1, human CB2 receptor; experiment: cAMP Hunter functional assay in NKH-477-stimulated CHO-K1 cells overexpressing CB2R; details: for Functional behavior at CB2R: agonist mode / antagonist mode with JWH-133 4 µM challenge
[4] = molecular target: T1, human CB2 receptor; experiment: Competition binding assay, displacement of [3H]-CP-55,940, CB2R; set-up: logKiCB2 (nM) Exp.: unit not given here; details: for Ki: CB2R Ki, membranes from HEK cells, [3H]CP-55,940, mean ± SD, at least three experiments in duplicate; for logKiCB2 (nM) Exp.: log of experimental Ki
Experimental: (§1) Binding at equilibrium was performed as previously reported. […] All compounds were tested following the procedure described by the manufacturer (Perkin Elmer, Italy). […] Ki values were calculated by applying the Cheng–Prusoff equation to the IC50 values (obtained by GraphPad) for the displacement of the bound radioligand by increasing concentrations of the test compound.

[5] = molecular target: human recombinant CB1 receptor (Homo sapiens, UniProt P21554); experiment: Competition binding assay, displacement of [3H]-CP-55,940, CB1R
Sequence of human recombinant CB1 receptor (P21554 whole entry): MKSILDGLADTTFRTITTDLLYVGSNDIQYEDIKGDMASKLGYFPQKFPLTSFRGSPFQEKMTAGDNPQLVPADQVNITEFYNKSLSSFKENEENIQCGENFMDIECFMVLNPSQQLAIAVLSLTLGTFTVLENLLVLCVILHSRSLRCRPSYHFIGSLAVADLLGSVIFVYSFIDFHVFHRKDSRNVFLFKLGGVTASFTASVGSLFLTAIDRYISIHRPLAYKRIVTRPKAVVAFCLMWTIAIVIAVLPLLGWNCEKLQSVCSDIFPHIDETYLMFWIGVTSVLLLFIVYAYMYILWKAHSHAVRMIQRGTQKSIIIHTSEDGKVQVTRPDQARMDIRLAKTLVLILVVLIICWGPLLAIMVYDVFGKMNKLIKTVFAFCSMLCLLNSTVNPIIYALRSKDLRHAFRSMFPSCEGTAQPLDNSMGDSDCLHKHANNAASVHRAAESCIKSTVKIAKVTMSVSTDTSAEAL
Experimental: as §1

## CCCCn1c(=O)c(C(=O)NC23CC4CC(CC(C4)C2)C3)c(O)c2nn(C)cc21.[Cs] [63-cesium salt, N-(Adamantan-1-yl)-4-(1-butyl)-7-hydroxy-2-methyl-5-oxo-4,5-dihydro-2H-pyrazolo[4,3-b]pyridine-6-carboxamide Cesium Salt]
[1]; 0.9% NaCl
  Concentration of dissolved 63 maintained for at least one hour: around 50 × 10^−6 mol/L
  Peak concentration of dissolved 63: higher than 100 × 10^−6 mol/L
  Time to decrease to the value consistent with the Ks of the sodium salt: 200 min

## CCCCn1c(=O)c(C(=O)NC23CC4CC(CC(C4)C2)C3)c(O)c2nn(C)cc21.[Na] [63-sodium salt, N-(Adamantan-1-yl)-4-(1-butyl)-7-hydroxy-2-methyl-5-oxo-4,5-dihydro-2H-pyrazolo[4,3-b]pyridine-6-carboxamide Sodium Salt]
[1]; excess salt in 0.9% NaCl, room temperature
  Concentration of dissolved 63, average over time points: 6.37 µM

## CCCCCn1c(=O)c(C(=O)NC23CC4CC(CC(C4)C2)C3)c(O)c2nn(C)cc21 [Compound 3, reference compound]
[2]
  Selectivity Index: 167

## Cn1cc2c(n1)c(O)c(C(=O)NC13CC4CC(CC(C4)C1)C3)c(=O)n2Cc1ccccc1 [Compound 26, N-(Adamantan-1-yl)-4-benzyl-7-hydroxy-2-methyl-5-oxo-4,5-dihydro-2H-pyrazolo[4,3-b]pyridine-6-carboxamide]
[3]
  Functional behavior at CB2R: antagonist/inverse agonist behavior
other
  melting point: 180 to 183 °C
[4]
  Ki: < 20 nM and 0.48 nM

## CCCCCn1c(=O)c(C(=O)NC23CC4CC(CC(C4)C2)C3)c(O)c2nn(C)c(C)c21 [Compound 55, N-(Adamantan-1-yl)-7-hydroxy-2,3-dimethyl-5-oxo-4-(1-pentyl)-4,5-dihydro-2H-pyrazolo[4,3-b]pyridine-6-carboxamide]
[3]
  Functional behavior at CB2R: antagonist/inverse agonist behavior
other
  melting point: 67 °C
[5]
  CB1 receptor activity in words: not active at all
[5]; membranes from HEK cells, [3H]CP-55,940, mean ± SD, at least three experiments in duplicate, read-out: CB1R Ki
  Ki: > 10000 nM
[4]
  Ki: < 20 nM and 2.11 nM
  logKiCB2 (nM) Exp.: 0.32

## CC(C)n1c(=O)c(C(=O)NC23CC4CC(CC(C4)C2)C3)c(O)c2c1cnn2C [Compound 57]
[3]
  EC50: 1590 nM
  Functional behavior at CB2R: typical agonist behavior
[3]; agonist mode, 25 µM NKH477
  Emax: 84.05
[5]
  Ki: > 10000 nM
[4]
  SI (selectivity index for CB2R, Ki(CB1R)/Ki(CB2R)): >184
  Ki: 54.3 ± 12.3 nM
  logKiCB2 (nM) Exp.: 1.73
